Measurements as given in patent US20250304973A1, “HIGH-AFFINITY THROMBIN APTAMERS AND METHODS OF USE” (Ayass Bioscience LLC, priority 2024, published 2025).

How the values were obtained:
Format in all cases: biochemical
human citrated plasma = experiment: Prothrombin time (PT) assay in human citrated plasma; settings: 2 uM, 2 h, versus untreated control
Description: Plasma was prepared by centrifugation for 10 min at 2000×g. In vitro activity assays were performed on ACLTOP analyzer manufactured by Instrumentation Laboratory, which is a type of coagulation analyzer commonly used in clinical laboratories to measure clotting times and assess coagulation parameters. The ACLTOP analyzer is designed to perform a wide range of coagulation tests, including Factor II activity, prothrombin time (PT), activated partial thromboplastin time (APTT), fibrinogen, and other related assays. ACLTOP analyzer uses HemosIL reagents developed by Instrumentation Laboratory company (Bedford, MA, USA) to perform coagulation tests.
PT time was measured using RecombiPlasTin 2G for quantitative determination in human citrated plasma of PT and Fibrinogen on an ACLTOP coagulation analyzer manufactured by Instrumentation Laboratory (Bedford, MA, USA). To assess the activity of the aptamers in a dose-dependent manner in whole blood, human blood samples were collected in citrate-treated tubes. The blood samples were then incubated at room temperature for 2 h in the absence or presence of varying concentrations of the thrombin aptamers. To measure the Prothrombin Time (PT) on the ACLTOP coagulation analyzer, plasma was obtained by centrifuging the samples at 1500×g for 10 min at 4° C. For the dose dependence study, concentrations of 1 uM, 2 uM, 3 uM, and 4 uM of AYA1809002 and AYA1809004 were utilized.
Modified aptamers chemically crosslinked with TAG, PEG, and cholesterol entities at the 3′ end, were purchased from IDT (Integrated DNA Technologies, Coralville, IA, USA). The impact of modified AYA1809002 and AYA1809004 aptamers on Factor II activity, PT, and APTT was evaluated using the same protocol as was used for the unmodified aptamers. Additionally, the potential for reversal was investigated using the respective reverse complement for each aptamer.

Factor II activity = biological target: T1, Factor II activity (Homo sapiens, UniProt P00734); experiment: Dose-dependent Factor II activity in whole blood; settings: 1, 2, 3, 4 uM; 2 h room temperature; citrated whole human blood
T1 construct: tissue Rockland Immunochemicals, Inc R214-0050; host or cells: human citrated plasma / whole blood
Description: 138. […] Factor II activity was measured using human plasma immunodepleted of Factor II for the quantitative determination of Factor II activity in citrated plasma based on the prothrombin time (PT) assay, for which an ACLTOP coagulation analyzer manufactured by Instrumentation Laboratory (Bedford, MA, USA) was used. To evaluate the dose-dependent activity of the aptamers in whole blood, human blood samples were collected in citrate-treated tubes. Subsequently, the blood samples were incubated at room temperature for 2 h in both the absence and presence of various concentrations of thrombin aptamers. To measure the Factor II activity using the ACLTOP coagulation analyzer, plasma was separated from the cells by centrifugation at 1500×g for 10 min at 4° C. For the dose-dependent study, concentrations of 1 uM, 2 uM, 3 uM, and 4 uM of AYA1809002 and AYA1809004 were utilized.
156. To facilitate future applications, gaining a comprehensive understanding of the activity of aptamers in whole blood is of paramount importance. To assess their effectiveness, we tested the selected aptamers at various concentrations in whole blood to evaluate their impact on Factor II activity and PT time. Human blood samples were collected in citrate- treated tubes. The blood samples were then incubated at room temperature for 2 h in the absence or presence of varying concentrations of thrombin aptamers. […]

clot-bound thrombin = biological target: T2, clot-bound thrombin (Homo sapiens, UniProt P00734); experiment: Clot-bound thrombin inhibition; settings: for inhibition of clot-bound thrombin: washed clots from platelet-rich plasma, fluorogenic substrate, 90 min, 37° C.
T2 construct: from tissue; host or cells: washed fibrin clots formed from platelet-rich plasma of healthy donors
Description: 145. For the inhibition study of clot-bound thrombin, blood samples were collected from healthy donors using citrate-treated tubes and centrifuged at 200×g for 15 min at room temperature. The resulting supernatant consisting of platelet-rich plasma (PRP) was collected and aliquots of 500 μL were transferred to microfuge tubes containing 50 μL of 300 mM CaCl2). The mixture was then incubated for 2 h at 37° C. in an incubator without agitation. The formed clots were washed ten times over the course of 16 h at room temperature; each time, 1 mL aliquots of TBS buffer (50 mM Tris-HCl, 100 mM NaCl, pH 7.4) were added to the clots with mixing. Subsequently, the washed clots were transferred to the assay plate (ThermoFisher Scientific, cat #3915, Waltham, MA, USA). […] After a 20 min incubation period with agitation, a thrombin substrate (, Thrombin substrate III, Fluorogenic, Sigma-Aldrich, cat #605211, St. Louis, MO, USA) was added to each sample at a final concentration of 200 μM. Fluorescence measurements were performed using a SYNERGY/HTX multi-mode reader (BioTek, Agilent Technologies, Santa Clara, CA 95051, USA) with the excitation/emission wavelengths set at 360/460 nm. The measurements were recorded for a total duration of 90 min at a temperature of 37° C.

Row | Substance | increase in PT time (human citrated plasma) | effect on Factor II activity in whole blood (Factor II activity) | inhibition of clot-bound thrombin (clot-bound thrombin) | level of clot-bound thrombin inhibition, comparison (clot-bound thrombin; comparison between aptamers and with dabigatran 2 μM)
1 | AYA1809004: ssDNA thrombin aptamer TCGTCAAGGTACGGTTGGGGGGGTGGGTGTTGACGTTGAA (DNA, backbone not given here) | three-fold increases | dose-dependent decrease in Factor II activity | inhibit clot-bound thrombin in a concentration-dependent manner | 
2 | AYA1809002: ssDNA thrombin aptamer GCGGTGTTGCTGGGGTTGGGAGGTTGGAGGAAGCAATCGC | three-fold increases | dose-dependent decrease in Factor II activity | inhibit clot-bound thrombin in a concentration-dependent manner | higher level of inhibition compared to AYA1809004
